Laboratory results published in patent US20220370440A1 (Lead Discovery Center GmbH, priority 2018, published 2022).

How the values were obtained:
H1975 = H1975 CellTiter-Glo; assay type: cell-based; conditions: Homo sapiens, NCI-H1975; 72 h compound incubation; read-out: H1975 CTG IC50
Method in brief: (§1)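 Luminescence from cellular ATP serves as the viability signal after cells are treated with compound dilutions for 72 h at 37° C. IC50 is derived by curve fitting, with DMSO-treated and 10 μM Staurosporine-treated wells defining the assay window.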

H1781 = H1781 CellTiter-Glo; assay type: cell-based; conditions: NCI-H1781; 72 h compound incubation; read-out: H1781 CTG IC50
Method in brief: as §1

[1] = biological target: EGFR Exon 20 INSNPH Ba/F3 (Homo sapiens, UniProt P00533, DUP771-773, cells depend on it); assay: EGFR Exon 20 INSNPH Ba/F3 CellTiter-Glo; assay type: cell-based; conditions: CellTiter-Glo, 72 h, read-out: EGFR Exon 20 INSNPH Ba/F3 CTG IC50
Sequence of EGFR Exon 20 INSNPH Ba/F3 (P00533 with tags, fused parts or gaps DUP771-773): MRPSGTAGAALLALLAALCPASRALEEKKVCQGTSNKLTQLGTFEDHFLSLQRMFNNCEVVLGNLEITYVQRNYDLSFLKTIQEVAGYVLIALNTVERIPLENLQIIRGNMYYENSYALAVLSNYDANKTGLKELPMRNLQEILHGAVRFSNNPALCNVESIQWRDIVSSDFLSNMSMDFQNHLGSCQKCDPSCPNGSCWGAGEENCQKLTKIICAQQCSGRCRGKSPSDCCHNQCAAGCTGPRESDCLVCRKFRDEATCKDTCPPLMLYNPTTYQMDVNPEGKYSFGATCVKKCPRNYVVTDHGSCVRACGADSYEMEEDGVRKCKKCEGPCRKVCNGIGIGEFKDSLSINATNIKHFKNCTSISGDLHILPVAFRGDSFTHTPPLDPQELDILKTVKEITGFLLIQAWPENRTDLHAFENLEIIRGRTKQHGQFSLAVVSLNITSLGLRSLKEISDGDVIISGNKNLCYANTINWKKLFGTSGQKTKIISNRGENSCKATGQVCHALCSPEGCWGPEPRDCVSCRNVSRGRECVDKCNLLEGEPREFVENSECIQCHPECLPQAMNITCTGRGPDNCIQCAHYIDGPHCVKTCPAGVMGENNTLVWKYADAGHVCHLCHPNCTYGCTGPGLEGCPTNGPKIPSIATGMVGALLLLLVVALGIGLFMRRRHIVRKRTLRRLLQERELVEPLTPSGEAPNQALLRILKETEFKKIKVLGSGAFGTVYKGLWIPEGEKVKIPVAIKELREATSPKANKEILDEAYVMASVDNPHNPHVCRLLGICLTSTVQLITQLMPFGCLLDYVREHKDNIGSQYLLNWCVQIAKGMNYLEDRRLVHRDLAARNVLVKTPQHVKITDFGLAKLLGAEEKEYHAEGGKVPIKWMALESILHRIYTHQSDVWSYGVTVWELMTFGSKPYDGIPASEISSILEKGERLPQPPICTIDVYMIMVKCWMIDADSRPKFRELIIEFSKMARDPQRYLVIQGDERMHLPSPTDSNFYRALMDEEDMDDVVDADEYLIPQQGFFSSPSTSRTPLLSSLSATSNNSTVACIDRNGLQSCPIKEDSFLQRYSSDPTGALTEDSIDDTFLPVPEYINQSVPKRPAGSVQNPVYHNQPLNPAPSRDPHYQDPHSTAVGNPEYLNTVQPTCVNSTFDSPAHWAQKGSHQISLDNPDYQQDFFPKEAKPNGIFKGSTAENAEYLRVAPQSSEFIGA
Method in brief: (§2)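 Using a 72 h viability readout, compound-treated Ba/F3 cells (pre-incubated 24 h after seeding) were lysed with CellTiter-Glo reagent and luminescence recorded. Potency was expressed as IC50 from a fitted dose–response curve.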

EGFR wt = EGFR wt (Homo sapiens, UniProt P00533); assay: EGFR wt Lance assay; assay type: biochemical
Sequence of EGFR wt (P00533 25-1210): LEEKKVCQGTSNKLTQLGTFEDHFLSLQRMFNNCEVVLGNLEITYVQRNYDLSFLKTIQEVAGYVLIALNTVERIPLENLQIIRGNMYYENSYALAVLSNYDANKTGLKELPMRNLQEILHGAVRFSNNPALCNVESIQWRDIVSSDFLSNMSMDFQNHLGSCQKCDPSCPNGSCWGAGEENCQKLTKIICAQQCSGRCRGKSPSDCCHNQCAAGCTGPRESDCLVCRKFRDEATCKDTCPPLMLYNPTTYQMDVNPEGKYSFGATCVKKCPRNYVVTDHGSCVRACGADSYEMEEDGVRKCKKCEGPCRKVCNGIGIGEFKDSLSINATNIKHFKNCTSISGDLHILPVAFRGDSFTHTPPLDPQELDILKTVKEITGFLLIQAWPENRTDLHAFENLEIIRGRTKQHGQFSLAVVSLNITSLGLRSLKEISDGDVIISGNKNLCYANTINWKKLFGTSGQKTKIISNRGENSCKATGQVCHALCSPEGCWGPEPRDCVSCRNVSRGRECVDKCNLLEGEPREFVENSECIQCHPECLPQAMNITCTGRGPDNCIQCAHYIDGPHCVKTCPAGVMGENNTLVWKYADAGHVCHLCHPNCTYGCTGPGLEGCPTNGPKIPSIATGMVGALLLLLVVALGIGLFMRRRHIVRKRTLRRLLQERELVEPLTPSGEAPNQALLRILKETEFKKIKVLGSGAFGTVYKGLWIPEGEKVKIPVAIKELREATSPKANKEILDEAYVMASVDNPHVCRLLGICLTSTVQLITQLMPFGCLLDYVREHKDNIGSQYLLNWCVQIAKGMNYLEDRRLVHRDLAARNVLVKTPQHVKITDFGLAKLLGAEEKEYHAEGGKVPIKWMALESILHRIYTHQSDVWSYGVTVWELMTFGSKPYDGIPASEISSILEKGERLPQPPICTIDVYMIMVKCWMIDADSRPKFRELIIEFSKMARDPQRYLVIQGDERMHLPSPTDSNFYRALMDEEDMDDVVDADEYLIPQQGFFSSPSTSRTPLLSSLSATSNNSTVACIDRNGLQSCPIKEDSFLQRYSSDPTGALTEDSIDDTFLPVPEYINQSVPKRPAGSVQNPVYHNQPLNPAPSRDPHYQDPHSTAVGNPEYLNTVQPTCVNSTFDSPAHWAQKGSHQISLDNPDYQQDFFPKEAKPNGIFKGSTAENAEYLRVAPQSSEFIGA
Protocol: (§3) Inhibition is indicated as […] [nM] (“−”=not measured). Compounds having an activity designated as “A” provided an IC50≤100 nM; compounds having an activity designated as “B” provided an 100 nM<IC50≤500 nM; compounds having an activity designated as “C” provided an 500 nM<IC50≤1000 nM; compounds having an activity designated as “D” provided an 1000 nM<IC50≤100000 nM; and compounds having an activity designated as “E” provided an IC50>10000 nM.

EGFR T790ML858R = EGFR T790ML858R (Homo sapiens, UniProt P00533, L858R/T790M); assay: EGFR T790ML858R Lance assay; assay type: biochemical
Sequence of EGFR T790ML858R (P00533 25-1210 T790M/L858R): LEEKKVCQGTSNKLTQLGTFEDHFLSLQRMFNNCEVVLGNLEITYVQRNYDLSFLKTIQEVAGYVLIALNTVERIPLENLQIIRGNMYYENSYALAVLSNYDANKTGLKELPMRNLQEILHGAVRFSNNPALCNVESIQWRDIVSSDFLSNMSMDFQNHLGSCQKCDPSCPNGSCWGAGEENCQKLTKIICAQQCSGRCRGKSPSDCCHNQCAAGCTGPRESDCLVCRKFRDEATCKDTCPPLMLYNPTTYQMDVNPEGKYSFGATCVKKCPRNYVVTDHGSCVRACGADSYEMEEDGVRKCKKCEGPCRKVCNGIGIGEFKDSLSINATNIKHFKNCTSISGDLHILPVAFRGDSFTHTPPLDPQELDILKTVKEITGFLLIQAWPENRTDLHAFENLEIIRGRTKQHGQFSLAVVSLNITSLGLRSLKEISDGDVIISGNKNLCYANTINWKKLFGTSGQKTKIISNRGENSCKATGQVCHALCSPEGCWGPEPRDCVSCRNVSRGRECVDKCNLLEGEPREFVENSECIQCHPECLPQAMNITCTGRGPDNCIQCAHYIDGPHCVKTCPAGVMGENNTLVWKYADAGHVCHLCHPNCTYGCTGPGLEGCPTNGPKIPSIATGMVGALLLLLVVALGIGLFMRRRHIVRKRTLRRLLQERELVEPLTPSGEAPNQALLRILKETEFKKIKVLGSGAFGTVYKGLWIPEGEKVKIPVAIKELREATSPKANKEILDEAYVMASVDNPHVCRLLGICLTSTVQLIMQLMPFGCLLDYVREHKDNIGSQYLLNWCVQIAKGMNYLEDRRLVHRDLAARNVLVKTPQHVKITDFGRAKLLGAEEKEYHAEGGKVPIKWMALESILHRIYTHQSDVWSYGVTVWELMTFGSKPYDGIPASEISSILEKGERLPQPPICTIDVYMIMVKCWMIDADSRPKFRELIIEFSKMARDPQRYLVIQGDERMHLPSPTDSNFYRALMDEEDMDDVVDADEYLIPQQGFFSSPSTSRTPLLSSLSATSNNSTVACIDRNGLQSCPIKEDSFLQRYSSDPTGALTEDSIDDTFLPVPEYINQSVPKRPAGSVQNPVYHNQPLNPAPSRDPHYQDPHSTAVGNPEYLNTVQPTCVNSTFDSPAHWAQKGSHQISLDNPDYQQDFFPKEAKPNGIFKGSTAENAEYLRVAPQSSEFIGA
Protocol: as §3

[2] = Metabolic stability in mouse liver microsomes without cofactor NADPH; assay type: in vitro ADME; conditions: 3 μM test compound, mouse liver microsomes, without NADPH, 50 min, 37° C., LC-MS/MS
Method in brief: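 Test compound (3 μM) was incubated with mouse liver microsomes without NADPH at 37° C. Depletion was followed by LC-MS/MS over time up to 50 min.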

A431 = A431 CellTiter-Glo; assay type: cell-based; conditions: Homo sapiens, A-431; 72 h compound incubation; read-out: A431 CTG IC50
Method in brief: as §1

HER2 INS YVMA = biological target: T1, HER2 INS YVMA (Homo sapiens, UniProt P04626, INS775YVMA); assay: Lance Kinase Activity Assay, HER2 INS YVMA (Her2 Exon 20 INSYVMA Lance); assay type: biochemical; conditions: biochemical Lance assay
T1 construct: purchased DPF
T1 sequence (P04626 with tags, fused parts or gaps INS775YVMA): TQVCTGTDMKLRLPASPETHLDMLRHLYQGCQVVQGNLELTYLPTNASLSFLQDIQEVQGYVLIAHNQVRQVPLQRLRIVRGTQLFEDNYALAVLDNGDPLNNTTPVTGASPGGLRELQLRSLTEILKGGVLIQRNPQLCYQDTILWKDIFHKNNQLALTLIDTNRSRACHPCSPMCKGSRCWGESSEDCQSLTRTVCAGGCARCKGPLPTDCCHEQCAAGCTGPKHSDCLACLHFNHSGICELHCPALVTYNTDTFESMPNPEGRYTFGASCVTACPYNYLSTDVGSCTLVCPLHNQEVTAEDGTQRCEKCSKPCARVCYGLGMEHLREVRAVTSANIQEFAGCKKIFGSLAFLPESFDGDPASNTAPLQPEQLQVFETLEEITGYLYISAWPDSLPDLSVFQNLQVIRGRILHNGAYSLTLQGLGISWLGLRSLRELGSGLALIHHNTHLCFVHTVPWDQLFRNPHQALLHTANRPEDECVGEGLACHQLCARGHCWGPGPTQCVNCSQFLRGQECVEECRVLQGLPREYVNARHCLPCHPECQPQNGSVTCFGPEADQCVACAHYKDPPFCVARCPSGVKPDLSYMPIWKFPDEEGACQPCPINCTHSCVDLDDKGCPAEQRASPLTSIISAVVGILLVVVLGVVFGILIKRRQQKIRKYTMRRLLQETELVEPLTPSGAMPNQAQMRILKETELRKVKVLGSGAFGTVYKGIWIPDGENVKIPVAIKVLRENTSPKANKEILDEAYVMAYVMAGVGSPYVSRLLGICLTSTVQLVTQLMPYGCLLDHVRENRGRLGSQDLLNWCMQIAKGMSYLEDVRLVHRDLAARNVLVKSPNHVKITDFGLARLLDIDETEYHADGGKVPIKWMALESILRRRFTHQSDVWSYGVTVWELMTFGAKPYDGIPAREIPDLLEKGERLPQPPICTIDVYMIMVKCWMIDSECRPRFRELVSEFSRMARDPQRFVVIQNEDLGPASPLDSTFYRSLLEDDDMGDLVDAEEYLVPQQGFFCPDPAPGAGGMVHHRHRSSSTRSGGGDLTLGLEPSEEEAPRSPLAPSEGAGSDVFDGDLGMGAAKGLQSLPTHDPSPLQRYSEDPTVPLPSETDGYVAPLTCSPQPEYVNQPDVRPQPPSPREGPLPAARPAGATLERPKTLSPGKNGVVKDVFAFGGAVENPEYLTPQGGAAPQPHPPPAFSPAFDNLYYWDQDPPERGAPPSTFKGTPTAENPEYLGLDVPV
Method in brief: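 Kinase phosphorylates a ULight-labelled peptide substrate; Eu anti-phospho antibody gives TR-FRET (ex 340 nm, em 665/615 nm). Compounds in 1:3 serial dilution over 8 steps, reaction started with ATP, 1 h at room temperature, stopped with EDTA-containing detection mix for 1 h. IC50 from sigmoidal dose-response curves.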

[3] = biological target: Her2 Exon 20 INSYVMA Ba/F3 (Homo sapiens, UniProt P04626, DUP772-775, cells depend on it); assay: Her2 Exon 20 INSYVMA Ba/F3 CellTiter-Glo; assay type: cell-based; conditions: CellTiter-Glo, 72 h, read-out: Her2 Exon 20 INSYVMA Ba/F3 CTG IC50
Method in brief: as §2

IC50 (H1975): ≤ 100 nM
IC50 (H1781): 100 to 500 nM
GI50 [1]: 100 to 500 nM
IC50 (EGFR wt): ≤ 100 nM
IC50 (EGFR T790ML858R): ≤ 100 nM
Stability in presence of mouse liver microsomes without cofactor NADPH [% remaining after 50 min] [2]: 92 % remaining after 50 min
IC50 (A431): 100 to 500 nM
IC50 (HER2 INS YVMA): ≤ 100 nM
GI50 [3]: 100 to 500 nM
SMILES: C=CC(=O)Nc1cc(-c2c(-c3ccc(N4CCNCC4)cc3)[nH]c3nccc(Cl)c23)ccc1C [Example 96, N-(5-(4-chloro-2-(4-(piperazin-1-yl)phenyl)-1H-pyrrolo[2,3-b]pyridin-3-yl)-2-methylphenyl)acrylamide 2,2,2-trifluoroacetate]
